The nature of data set [1]: physchem. Conditions: phosphate buffered saline, pH 7.4.
Data set [2] is described as follows: Protein binding in human plasma assessed as unbound fraction at 1 uM measured after 24 hrs by LC-MS/MS analysis. In kind it is ADME, cell-free.
Data set [3] can be described thus: Efflux ratio of permeability across basolateral to apical side over apical to basolateral side in MDCK2 cells. In kind it is ADME, cell-based, Canis lupus familiaris, MDCK-II. Conditions: dog, mdck.
The nature of data set [4]: Permeability of the compound measured after 4 hrs by PAMPA. It counts as ADME. Conditions: read-out: permeability. Background: PAMPA measures passive passage across an artificial lipid membrane.
Data set [5] relates to COLO 320DM. Put plainly: Antiproliferative activity against human COLO320DM cells assessed as inhibition of cell growth measured after 4 days by CellTiter-Glo assay. Conditions: 96 h. It counts as functional. Background: In ATP-based viability assays light output follows the ATP content of the culture.
Data set [6] has as its target T1, Tankyrase 1/2 (Homo sapiens, UniProt Q9H2K2+O95271).
T1 sequence (Q9H2K2 whole entry): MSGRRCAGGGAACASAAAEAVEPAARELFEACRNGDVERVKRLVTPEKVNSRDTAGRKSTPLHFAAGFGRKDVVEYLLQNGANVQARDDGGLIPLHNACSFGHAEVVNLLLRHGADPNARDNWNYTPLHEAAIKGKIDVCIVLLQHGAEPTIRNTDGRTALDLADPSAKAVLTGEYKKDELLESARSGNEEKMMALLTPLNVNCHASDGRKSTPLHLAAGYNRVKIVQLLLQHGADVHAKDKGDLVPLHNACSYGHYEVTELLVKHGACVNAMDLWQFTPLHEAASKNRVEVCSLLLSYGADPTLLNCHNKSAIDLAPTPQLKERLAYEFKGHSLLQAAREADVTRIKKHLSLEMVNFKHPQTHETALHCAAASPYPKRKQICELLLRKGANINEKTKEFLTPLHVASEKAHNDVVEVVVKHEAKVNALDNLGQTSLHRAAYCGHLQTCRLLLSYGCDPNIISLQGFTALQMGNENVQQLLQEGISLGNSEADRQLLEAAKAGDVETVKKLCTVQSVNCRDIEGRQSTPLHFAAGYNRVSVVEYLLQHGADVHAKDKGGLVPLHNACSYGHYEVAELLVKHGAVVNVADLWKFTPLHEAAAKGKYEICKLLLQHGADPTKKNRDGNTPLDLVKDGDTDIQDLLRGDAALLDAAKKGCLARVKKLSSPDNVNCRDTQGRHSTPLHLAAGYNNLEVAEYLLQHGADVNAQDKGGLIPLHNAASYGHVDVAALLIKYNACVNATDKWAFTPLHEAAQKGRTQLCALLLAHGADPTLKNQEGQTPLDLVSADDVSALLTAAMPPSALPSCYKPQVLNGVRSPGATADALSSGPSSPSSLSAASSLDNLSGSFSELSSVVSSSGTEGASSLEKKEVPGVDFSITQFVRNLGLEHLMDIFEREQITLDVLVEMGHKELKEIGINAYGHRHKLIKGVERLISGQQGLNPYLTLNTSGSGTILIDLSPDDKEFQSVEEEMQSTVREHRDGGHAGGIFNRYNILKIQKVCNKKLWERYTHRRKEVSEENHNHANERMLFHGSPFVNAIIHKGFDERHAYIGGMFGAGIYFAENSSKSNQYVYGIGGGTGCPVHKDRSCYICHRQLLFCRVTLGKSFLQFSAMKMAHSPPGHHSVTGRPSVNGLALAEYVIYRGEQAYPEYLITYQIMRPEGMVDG
T1 sequence (O95271 whole entry): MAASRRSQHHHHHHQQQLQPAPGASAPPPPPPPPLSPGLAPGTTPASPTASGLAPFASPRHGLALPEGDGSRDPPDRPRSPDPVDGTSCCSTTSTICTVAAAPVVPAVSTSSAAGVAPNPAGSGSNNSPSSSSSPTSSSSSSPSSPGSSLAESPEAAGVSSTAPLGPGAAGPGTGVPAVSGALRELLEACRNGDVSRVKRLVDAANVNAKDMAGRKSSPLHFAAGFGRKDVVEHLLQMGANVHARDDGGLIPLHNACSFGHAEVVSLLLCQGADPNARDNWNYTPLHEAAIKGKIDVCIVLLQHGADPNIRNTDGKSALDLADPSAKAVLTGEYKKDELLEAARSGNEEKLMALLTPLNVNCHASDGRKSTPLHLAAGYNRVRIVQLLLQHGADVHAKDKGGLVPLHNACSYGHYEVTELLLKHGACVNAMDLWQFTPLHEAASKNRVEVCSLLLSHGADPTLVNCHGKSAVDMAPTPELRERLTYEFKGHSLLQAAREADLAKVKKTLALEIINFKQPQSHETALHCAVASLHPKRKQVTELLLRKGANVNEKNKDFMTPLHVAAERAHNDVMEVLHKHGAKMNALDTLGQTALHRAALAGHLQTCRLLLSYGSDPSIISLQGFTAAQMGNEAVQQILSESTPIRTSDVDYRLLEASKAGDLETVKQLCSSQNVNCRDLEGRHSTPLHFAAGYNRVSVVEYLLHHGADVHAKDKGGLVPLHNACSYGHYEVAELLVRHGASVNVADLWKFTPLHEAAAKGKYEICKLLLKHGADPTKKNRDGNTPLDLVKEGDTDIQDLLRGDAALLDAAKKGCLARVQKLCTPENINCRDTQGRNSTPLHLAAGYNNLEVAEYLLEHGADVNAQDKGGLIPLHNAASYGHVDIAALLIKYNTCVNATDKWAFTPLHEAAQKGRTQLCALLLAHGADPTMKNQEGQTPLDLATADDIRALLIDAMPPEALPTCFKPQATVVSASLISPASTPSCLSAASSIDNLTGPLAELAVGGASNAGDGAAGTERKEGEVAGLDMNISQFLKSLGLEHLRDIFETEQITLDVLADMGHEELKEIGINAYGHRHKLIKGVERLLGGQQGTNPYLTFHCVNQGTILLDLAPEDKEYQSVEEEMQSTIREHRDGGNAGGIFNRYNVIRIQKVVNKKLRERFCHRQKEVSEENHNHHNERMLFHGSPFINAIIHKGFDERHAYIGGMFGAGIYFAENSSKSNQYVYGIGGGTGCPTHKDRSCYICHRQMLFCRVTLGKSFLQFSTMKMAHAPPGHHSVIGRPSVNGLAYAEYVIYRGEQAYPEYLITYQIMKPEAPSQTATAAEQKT
Conditions: hek293.
Description: Inhibition of TNKS/TNKS2 (unknown origin) expressed in HEK293 cells assessed as reduction in Wnt-signaling measured after 24 hrs by TCF-luciferase reporter gene assay

The nature of data set [7]: AUC (infinity) in ICR mouse at 50 mg/kg, ip. In kind it is ADME, organism-based. Details: dose 50 mg/kg, route intraperitoneal, time infinity. Conditions: in vivo.
A short description of data set [8]: Protein binding in mouse plasma assessed as unbound fraction at 1 uM measured after 24 hrs by LC-MS/MS analysis. It counts as ADME, cell-free.
The nature of data set [9]: Cmax in ICR mouse at 50 mg/kg, po. It counts as ADME, organism-based. On the set-up: dose 50 mg/kg, route oral. Conditions: in vivo.
The nature of data set [10]: Stability in human liver microsomes assessed as parent compound remaining at 1 uM measured after 30 mins in presence of NADPH by LC-MS/MS analysis. Conditions: read-out: Stability. It counts as ADME, Microsome.
A short description of data set [11]: Cmax in ICR mouse at 50 mg/kg, ip. It counts as ADME, organism-based. Details: dose 50 mg/kg, route intraperitoneal. Conditions: in vivo.
Data set [12] is described as follows: Stability in human liver microsomes assessed as parent compound remaining at 1 uM measured after 60 mins in presence of NADPH by LC-MS/MS analysis. It counts as ADME, Microsome. Conditions: read-out: Stability. A general note: Liver microsomes are a subcellular fraction often used to study metabolism.
Data set [13] in a line: AUC (infinity) in ICR mouse at 50 mg/kg, po. Conditions: in vivo. It counts as ADME, organism-based. Details: dose 50 mg/kg, time infinity, route oral.

Each structure is given as a SMILES string. In brackets after ≈: the same amount, converted by molar mass.

As to `CN1CCN(c2cc(F)c3c(c2)N(C)C(=O)C32CCN(c3nc4c(c(=O)[nH]3)CCCN4C)CC2)CC1`, in [1], the solubility (as a rule, how much of the substance goes into solution per volume) at 1 h, 200 µM turned out to be 94.5 µg/mL (≈ 191 µM). The fraction unbound (usually the share of the substance not bound to proteins or other matrix) at 24 h, 1 µM in data set [2] was determined as 0.004; in [8] it was 0.019. For the same compound, in data set [3], the efflux ratio – broadly, a quotient of directional permeabilities that is used to spot active efflux – was 3.1. Moreover, in [4], the Papp at 4 h turned out to be 12.8 ×10⁻⁶ cm/s. Moreover, the GI50 (as a rule, the concentration that inhibits growth by half) in [5] is 190 nM. For the same compound, the IC50 (as a rule, the midpoint of a concentration-inhibition curve) in data set [6] worked out at 0.9 nM. Further, the AUC(0-inf) (usually total exposure, with the tail of the curve extrapolated) stood at 207 µM·h in data set [7] and 77 µM·h in [13]. Also, the Cmax (usually the peak of the concentration-time curve) in data set [9] came to 21.2 µM; in data set [11] it was 53.6 µM. Moreover, in data set [10], the remaining at 0.5 h, 1 µM was determined as 72.7%. Also, the remaining at 1 h, 1 µM in data set [12] was in the range of 30.5 to 54.5%.

As for `C[C@@H]1CN(c2cc(F)c3c(c2)N(C)C(=O)C32CCN(c3nc4c(c(=O)[nH]3)CCCN4C)CC2)C[C@H](C)O1`, the solubility at 1 h, 200 µM in data set [1] worked out at 34.1 µg/mL (≈ 66.8 µM). Further, the results for the fraction unbound at 24 h, 1 µM in data set [2] and in data set [8] were 0.003 and 0.006, respectively. Moreover, the efflux ratio in data set [3] was 0.9. Also, the Papp at 4 h in data set [4] was 12.4 ×10⁻⁶ cm/s. The GI50 in [5] is 230 nM. In addition, in data set [6], the IC50 is reported as 0.3 nM. The results for the AUC(0-inf) in data set [7] and in [13] were 607 µM·h and 594 µM·h, respectively. Moreover, the Cmax in [9] amounted to 121 µM; in data set [11] it was 102 µM. Also, the remaining at 0.5 h, 1 µM in data set [10] is 73%. Also, in data set [12], the remaining at 1 h, 1 µM fell in the range of 28.7 to 55.9%.

The values are drawn from ChEMBL document CHEMBL4342498, “Design and Discovery of an Orally Efficacious Spiroindolinone-Based Tankyrase Inhibitor for the Treatment of Colon Cancer” (J Med Chem, 2020).
